From ChEMBL document CHEMBL5291721, “A preclinical secondary pharmacology resource illuminates target-adverse drug reaction associations of marketed drugs” (Nat Commun, 2023)

Tests used:
[1] = molecular target: T1, Alpha-2B adrenergic receptor (Homo sapiens, UniProt P18089)
T1 sequence (P18089 whole entry): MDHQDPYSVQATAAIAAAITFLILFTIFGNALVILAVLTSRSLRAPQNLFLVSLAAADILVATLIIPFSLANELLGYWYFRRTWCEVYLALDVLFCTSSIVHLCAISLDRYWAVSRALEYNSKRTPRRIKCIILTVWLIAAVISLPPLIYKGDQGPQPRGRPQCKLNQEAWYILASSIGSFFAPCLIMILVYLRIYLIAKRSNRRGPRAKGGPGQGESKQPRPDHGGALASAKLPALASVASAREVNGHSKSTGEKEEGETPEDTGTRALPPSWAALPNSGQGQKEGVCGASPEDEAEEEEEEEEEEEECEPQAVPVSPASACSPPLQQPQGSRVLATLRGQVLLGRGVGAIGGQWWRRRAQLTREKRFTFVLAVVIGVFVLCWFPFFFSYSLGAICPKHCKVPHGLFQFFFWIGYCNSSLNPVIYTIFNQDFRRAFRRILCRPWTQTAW

[2] = molecular target: Beta-2 adrenergic receptor (Homo sapiens, UniProt P07550); type: functional, cell-based
Sequence of Beta-2 adrenergic receptor (P07550 whole entry): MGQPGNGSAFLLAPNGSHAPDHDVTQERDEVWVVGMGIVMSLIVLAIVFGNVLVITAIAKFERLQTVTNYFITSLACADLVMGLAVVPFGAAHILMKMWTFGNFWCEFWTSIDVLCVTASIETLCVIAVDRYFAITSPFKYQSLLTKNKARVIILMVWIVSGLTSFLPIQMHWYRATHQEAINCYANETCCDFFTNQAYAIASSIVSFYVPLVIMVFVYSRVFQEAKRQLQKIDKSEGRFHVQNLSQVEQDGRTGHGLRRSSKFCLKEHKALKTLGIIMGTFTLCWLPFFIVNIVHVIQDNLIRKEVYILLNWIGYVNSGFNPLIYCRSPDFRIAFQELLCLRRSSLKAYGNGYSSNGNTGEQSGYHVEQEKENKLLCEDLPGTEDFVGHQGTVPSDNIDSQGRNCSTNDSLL

Vasopressin V2 receptor = Vasopressin V2 receptor (Homo sapiens, UniProt P30518)
Sequence of Vasopressin V2 receptor (P30518 whole entry): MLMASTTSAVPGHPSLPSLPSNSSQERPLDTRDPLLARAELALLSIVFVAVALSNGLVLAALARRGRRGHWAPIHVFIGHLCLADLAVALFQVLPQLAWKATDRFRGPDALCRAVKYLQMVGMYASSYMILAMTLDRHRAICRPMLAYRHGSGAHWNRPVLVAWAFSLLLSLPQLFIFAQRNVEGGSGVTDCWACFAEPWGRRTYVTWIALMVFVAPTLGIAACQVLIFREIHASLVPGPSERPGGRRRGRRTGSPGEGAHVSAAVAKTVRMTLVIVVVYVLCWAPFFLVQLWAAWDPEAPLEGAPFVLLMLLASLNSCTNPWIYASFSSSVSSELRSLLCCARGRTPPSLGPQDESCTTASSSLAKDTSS

B2 bradykinin receptor = molecular target: T2, B2 bradykinin receptor (Homo sapiens, UniProt P30411)
T2 sequence (P30411 whole entry): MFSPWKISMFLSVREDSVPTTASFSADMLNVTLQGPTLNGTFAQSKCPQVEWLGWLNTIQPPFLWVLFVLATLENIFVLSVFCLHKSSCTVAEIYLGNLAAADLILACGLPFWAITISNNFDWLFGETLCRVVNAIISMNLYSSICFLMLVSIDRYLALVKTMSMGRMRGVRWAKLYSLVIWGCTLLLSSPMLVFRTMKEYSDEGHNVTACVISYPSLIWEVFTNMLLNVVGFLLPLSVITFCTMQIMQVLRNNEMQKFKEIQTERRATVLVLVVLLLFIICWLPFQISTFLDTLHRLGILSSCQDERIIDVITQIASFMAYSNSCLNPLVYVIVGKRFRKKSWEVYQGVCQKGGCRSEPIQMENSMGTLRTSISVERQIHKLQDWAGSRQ

Cannabinoid receptor 1 = Cannabinoid receptor 1 (Homo sapiens, UniProt P21554); type: functional, cell-based
Sequence of Cannabinoid receptor 1 (P21554 whole entry): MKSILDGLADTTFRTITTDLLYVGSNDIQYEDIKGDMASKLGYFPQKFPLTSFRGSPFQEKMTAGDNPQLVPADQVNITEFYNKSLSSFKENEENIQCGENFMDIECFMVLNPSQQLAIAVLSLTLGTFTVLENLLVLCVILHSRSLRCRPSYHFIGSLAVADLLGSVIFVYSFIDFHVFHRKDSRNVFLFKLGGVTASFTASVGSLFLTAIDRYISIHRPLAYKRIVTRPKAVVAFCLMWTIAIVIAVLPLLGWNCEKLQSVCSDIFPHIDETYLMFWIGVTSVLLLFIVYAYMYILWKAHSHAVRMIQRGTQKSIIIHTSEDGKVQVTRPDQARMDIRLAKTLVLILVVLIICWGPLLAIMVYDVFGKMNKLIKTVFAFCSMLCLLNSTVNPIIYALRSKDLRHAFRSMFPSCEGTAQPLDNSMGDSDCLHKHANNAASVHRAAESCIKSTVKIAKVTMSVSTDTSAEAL

[3] = molecular target: 5-hydroxytryptamine receptor 2A (Homo sapiens, UniProt P28223); type: functional, cell-based
Sequence of 5-hydroxytryptamine receptor 2A (P28223 whole entry): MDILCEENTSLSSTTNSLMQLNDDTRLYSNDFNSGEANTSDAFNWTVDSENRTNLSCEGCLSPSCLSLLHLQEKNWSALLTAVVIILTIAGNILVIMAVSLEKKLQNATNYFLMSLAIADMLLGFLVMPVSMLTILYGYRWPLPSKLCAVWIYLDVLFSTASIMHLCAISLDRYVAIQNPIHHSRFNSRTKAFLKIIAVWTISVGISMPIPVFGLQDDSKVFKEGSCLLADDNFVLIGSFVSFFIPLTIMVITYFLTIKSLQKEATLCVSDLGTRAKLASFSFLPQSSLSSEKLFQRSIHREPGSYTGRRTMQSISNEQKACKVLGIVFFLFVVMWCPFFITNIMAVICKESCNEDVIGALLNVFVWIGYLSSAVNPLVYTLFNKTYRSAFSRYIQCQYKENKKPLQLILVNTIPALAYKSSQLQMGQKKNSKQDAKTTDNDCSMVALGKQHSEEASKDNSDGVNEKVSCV

[4] = molecular target: T3, 5-hydroxytryptamine receptor 2B (Homo sapiens, UniProt P41595); type: functional, cell-based
T3 sequence (P41595 whole entry): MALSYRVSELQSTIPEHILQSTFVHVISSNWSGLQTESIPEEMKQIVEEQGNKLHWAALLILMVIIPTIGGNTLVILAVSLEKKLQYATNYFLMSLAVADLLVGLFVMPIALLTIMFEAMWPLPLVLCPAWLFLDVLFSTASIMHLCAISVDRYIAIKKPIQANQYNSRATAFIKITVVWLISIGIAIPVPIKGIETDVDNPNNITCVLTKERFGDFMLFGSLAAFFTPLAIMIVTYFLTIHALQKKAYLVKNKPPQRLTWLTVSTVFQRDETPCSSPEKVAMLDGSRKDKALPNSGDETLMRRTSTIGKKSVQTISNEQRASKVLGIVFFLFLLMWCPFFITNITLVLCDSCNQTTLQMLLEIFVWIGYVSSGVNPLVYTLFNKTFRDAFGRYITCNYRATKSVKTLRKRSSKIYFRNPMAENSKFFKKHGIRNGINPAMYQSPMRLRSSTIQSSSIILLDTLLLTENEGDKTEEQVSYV

Melanocortin receptor 4 = Melanocortin receptor 4 (Homo sapiens, UniProt P32245)
Sequence of Melanocortin receptor 4 (P32245 whole entry): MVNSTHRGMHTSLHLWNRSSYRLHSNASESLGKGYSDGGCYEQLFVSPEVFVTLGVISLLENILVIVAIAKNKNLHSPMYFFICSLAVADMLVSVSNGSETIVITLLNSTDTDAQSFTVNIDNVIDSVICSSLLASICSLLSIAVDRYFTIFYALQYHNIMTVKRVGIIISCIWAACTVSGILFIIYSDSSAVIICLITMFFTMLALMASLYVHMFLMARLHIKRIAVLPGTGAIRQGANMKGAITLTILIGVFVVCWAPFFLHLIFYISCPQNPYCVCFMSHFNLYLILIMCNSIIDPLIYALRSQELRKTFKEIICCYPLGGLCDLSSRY

Progesterone receptor = molecular target: T4, Progesterone receptor (Homo sapiens, UniProt P06401); type: functional
T4 sequence (P06401 whole entry): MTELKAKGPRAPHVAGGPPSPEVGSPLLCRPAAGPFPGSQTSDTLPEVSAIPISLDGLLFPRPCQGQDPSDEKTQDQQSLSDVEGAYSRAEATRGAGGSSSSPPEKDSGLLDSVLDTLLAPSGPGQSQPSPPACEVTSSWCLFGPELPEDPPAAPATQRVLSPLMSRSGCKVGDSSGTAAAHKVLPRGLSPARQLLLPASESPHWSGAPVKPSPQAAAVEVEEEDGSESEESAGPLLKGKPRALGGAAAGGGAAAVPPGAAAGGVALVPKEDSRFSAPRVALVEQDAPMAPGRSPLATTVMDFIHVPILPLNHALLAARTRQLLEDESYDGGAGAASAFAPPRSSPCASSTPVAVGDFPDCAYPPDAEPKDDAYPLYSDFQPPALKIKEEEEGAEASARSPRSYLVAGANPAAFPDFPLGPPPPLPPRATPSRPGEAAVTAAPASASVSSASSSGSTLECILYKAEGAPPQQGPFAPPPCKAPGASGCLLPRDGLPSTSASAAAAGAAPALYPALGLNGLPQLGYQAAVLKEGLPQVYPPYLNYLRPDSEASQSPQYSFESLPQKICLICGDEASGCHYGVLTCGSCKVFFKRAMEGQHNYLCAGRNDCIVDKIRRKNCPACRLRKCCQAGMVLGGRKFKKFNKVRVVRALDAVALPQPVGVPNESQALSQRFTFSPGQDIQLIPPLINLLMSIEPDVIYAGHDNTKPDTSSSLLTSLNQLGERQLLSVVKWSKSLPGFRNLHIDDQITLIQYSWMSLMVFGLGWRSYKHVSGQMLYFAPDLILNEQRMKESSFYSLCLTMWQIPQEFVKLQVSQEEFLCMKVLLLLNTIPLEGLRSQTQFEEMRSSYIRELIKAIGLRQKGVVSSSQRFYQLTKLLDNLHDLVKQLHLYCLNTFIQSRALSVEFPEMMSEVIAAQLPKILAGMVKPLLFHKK

Mu-type opioid receptor = Mu-type opioid receptor (Homo sapiens, UniProt P35372)
Sequence of Mu-type opioid receptor (P35372 whole entry): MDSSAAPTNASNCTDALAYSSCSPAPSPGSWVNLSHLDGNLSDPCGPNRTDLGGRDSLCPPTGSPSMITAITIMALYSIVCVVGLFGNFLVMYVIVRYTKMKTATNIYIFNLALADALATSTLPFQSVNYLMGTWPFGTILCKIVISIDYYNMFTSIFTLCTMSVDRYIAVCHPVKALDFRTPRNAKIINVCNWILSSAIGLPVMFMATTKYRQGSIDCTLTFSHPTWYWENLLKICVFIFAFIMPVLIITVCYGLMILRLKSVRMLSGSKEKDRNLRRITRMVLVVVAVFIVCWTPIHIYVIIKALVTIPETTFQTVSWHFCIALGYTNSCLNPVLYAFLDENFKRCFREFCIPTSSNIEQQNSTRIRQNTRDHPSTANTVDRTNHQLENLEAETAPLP

[5] = molecular target: T3, 5-hydroxytryptamine receptor 2B; type: functional, cell-based; remark: listed apart in the source
[6] = molecular target: Sodium-dependent dopamine transporter (Homo sapiens, UniProt Q01959)
Sequence of Sodium-dependent dopamine transporter (Q01959 whole entry): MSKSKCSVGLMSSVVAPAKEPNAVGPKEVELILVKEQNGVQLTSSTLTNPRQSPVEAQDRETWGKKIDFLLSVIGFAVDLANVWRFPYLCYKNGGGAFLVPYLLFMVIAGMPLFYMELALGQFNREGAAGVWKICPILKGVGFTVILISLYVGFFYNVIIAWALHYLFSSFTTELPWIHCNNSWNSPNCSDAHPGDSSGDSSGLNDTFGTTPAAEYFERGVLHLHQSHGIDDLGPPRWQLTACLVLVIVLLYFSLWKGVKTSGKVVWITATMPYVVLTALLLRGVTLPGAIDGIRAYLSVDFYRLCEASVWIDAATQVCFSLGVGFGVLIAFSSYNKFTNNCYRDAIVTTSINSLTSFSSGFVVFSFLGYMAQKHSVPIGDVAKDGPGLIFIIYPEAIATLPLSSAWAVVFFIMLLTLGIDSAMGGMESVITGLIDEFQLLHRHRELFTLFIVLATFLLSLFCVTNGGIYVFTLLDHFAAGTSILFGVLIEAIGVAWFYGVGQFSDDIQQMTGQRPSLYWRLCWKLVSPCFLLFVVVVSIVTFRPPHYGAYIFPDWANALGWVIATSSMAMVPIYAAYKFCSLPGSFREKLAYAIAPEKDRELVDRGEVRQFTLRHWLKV
Note: assay procedure not described here.

| Structure (SMILES) | AC50 [1] | AC50 [2] | AC50 (Vasopressin V2 receptor) | AC50 (B2 bradykinin receptor) | AC50 (Cannabinoid receptor 1) | AC50 [3] | AC50 [4] | AC50 (Melanocortin receptor 4) | AC50 (Progesterone receptor) | AC50 (Mu-type opioid receptor) | AC50 [5] | AC50 [6] |
| --- | --- | --- | --- | --- | --- | --- | --- | --- | --- | --- | --- | --- |
| Cn1nnc2c(C(N)=O)ncn2c1=O [TEMOZOLOMIDE] | > 30 µM | > 30 µM | > 30 µM | > 30 µM | > 30 µM | > 30 µM | > 30 µM | > 30 µM | > 30 µM | > 30 µM | – | – |
| CNC1Cc2ccccc2N(C)c2ccccc21 (stereo not given) [METAPRAMINE] | 29 µM | > 30 µM | – | – | > 30 µM | 14 µM | – | – | > 30 µM | > 30 µM | – | – |
| Cc1c(C(=O)NN2CCCCC2)nn(-c2ccc(Cl)cc2Cl)c1-c1ccc(Cl)cc1 [RIMONABANT] | 23 µM | > 30 µM | > 30 µM | > 30 µM | – | 3.7 µM | 14 µM | 28.2 µM | > 30 µM | – | – | – |
| c1ccc([C@H]2CN3CCSC3=N2)cc1 [LEVAMISOLE] | – | > 30 µM | – | – | > 30 µM | – | > 30 µM | – | > 30 µM | > 30 µM | – | – |
| CN(C)CCC=C1c2ccccc2C(C)(C)c2ccccc21 | 11 µM | > 30 µM | – | – | > 30 µM | – | 4.34 µM | – | > 30 µM | 24 µM | – | – |
| C[C@H]1CNCCc2ccc(Cl)cc21 [LORCASERIN] | 5.7 µM | > 30 µM | – | – | > 30 µM | – | – | – | > 30 µM | > 30 µM | – | – |
| CNC(=O)c1ccccc1Sc1ccc2c(/C=C/c3ccccn3)n[nH]c2c1 [AXITINIB] | > 30 µM | > 30 µM | – | – | > 30 µM | > 30 µM | > 30 µM | – | > 30 µM | > 30 µM | – | – |
| N[C@@H]1[C@H]2CN(c3nc4c(cc3F)c(=O)c(C(=O)O)cn4-c3ccc(F)cc3F)C[C@@H]12 [TROVAFLOXACIN] | – | > 30 µM | – | – | > 30 µM | – | > 30 µM | – | > 30 µM | > 30 µM | – | – |
| CC(=O)Nc1ccc(O)cc1 [ACETAMINOPHEN] | – | > 30 µM | – | – | > 30 µM | – | > 30 µM | – | > 30 µM | > 30 µM | > 30 µM | > 30 µM |
| NCC(CC(=O)O)c1ccc(Cl)cc1 (stereo not given) [BACLOFEN] | – | > 30 µM | > 30 µM | > 30 µM | > 30 µM | – | > 30 µM | > 30 µM | > 30 µM | > 30 µM | > 30 µM | > 30 µM |
| C[C@@H](O)[C@H]1C(=O)N2C(C(=O)O)=C(S[C@@H]3CN[C@H](C(=O)N(C)C)C3)[C@H](C)[C@H]12 [MEROPENEM] | – | > 300 µM | > 10 µM | > 10 µM | > 300 µM | – | > 300 µM | > 10 µM | > 300 µM | > 300 µM | – | – |
| Cc1ccc(-c2cc(C(F)(F)F)nn2-c2ccc(S(N)(=O)=O)cc2)cc1 [CELECOXIB] | – | > 30 µM | > 30 µM | > 30 µM | > 30 µM | – | > 10 µM | > 10 µM | – | > 30 µM | – | – |
| CCCN1C[C@H](CSC)C[C@@H]2c3cccc4[nH]cc(c34)C[C@H]21 [PERGOLIDE] | – | > 30 µM | > 30 µM | > 30 µM | > 30 µM | – | – | > 30 µM | > 30 µM | > 30 µM | – | – |
| CN(C)CCC(c1ccc(Cl)cc1)c1ccccn1 (stereo not given) [CHLORPHENIRAMINE] | – | > 30 µM | > 30 µM | > 30 µM | > 30 µM | – | > 10 µM | > 30 µM | – | > 10 µM | – | – |
| c1cnc(N2CCN(Cc3ccc4c(c3)OCO4)CC2)nc1 [PIRIBEDIL] | – | > 30 µM | – | – | > 30 µM | > 30 µM | 2.3 µM | – | > 30 µM | > 30 µM | – | – |
| CS(=O)(=O)c1ccc(C2=C(c3ccccc3)C(=O)OC2)cc1 [ROFECOXIB] | – | > 30 µM | > 30 µM | > 30 µM | > 30 µM | – | > 30 µM | 24.1 µM | – | > 10 µM | > 30 µM | > 30 µM |
| CC(C)C[C@H]1C(=O)N2CCC[C@H]2[C@]2(O)O[C@](NC(=O)[C@@H]3C=C4c5cccc6[nH]c(Br)c(c56)C[C@H]4N(C)C3)(C(C)C)C(=O)N12 [BROMOCRIPTINE] | – | > 30 µM | > 30 µM | > 30 µM | > 30 µM | – | 0.538 µM | > 30 µM | > 30 µM | 14 µM | > 30 µM | > 30 µM |
| COCCCN1CCC(NC(=O)c2cc(Cl)c(N)c3c2OCC3)CC1 [PRUCALOPRIDE] | > 30 µM | > 30 µM | – | – | > 30 µM | > 30 µM | > 30 µM | – | > 30 µM | > 30 µM | > 30 µM | > 30 µM |
| CCOC(=O)[C@H](CCc1ccccc1)N[C@@H](C)C(=O)N1[C@H](C(=O)O)C[C@@H]2CCC[C@@H]21 | – | > 30 µM | > 30 µM | > 30 µM | > 30 µM | – | > 10 µM | > 30 µM | – | > 30 µM | – | – |
| O=C1Nc2ccc(Cl)cc2[C@@](C#CC2CC2)(C(F)(F)F)O1 [EFAVIRENZ] | > 30 µM | > 30 µM | > 30 µM | > 30 µM | > 30 µM | – | > 10 µM | > 30 µM | 14 µM | > 30 µM | – | – |
| C[C@]12CCC(=O)C=C1CC[C@@H]1[C@@H]2[C@@H](O)C[C@@]2(C)[C@H]1CC[C@]2(O)C(=O)CO [HYDROCORTISONE] | – | > 30 µM | > 30 µM | > 30 µM | > 30 µM | – | > 10 µM | > 30 µM | – | > 30 µM | – | – |
